We go through 18 molecules from patent US12281122B1, “PI3K inhibitors” (Cogent Biosciences, Inc., priority 2023, dated 2025).

By IC50 is commonly meant the concentration that inhibits the measured activity by half. Read a low IC50 as greater potency in that assay.

The test system of assay [1] is SKBR3 (PI3Kα-Wild Type) cell line. Nature of the assay: HTRF phospho-AKT(S473) cell assay in SKBR3 cells. The class given is cell-based, human. The note with it: Homo sapiens, SK-BR-3, 2 hours compound incubation, PDGF-BB stimulated. Summed up:
(§1)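 T47D: RPMI + 10% FBS + 0.2 units/mL insulin, top 5 μM. SKBR3: McCoy's 5A + 10% FBS, top 10 μM, 70 ng/ml PDGF-BB last 15 min. Both: 12-pt 1:3, 2 h, 37° C, max 0.5% DMSO; HTRF pAKT(S473); IC50.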
On the technique in general: TR-FRET usually uses a lanthanide donor and a delayed reading to cut background.

Assay [2] has as its system T47D (PI3Kα-H1047R) cell line. In words: HTRF phospho-AKT(S473) cell assay in T47D cells. The class given is cell-based, human. Conditions: Homo sapiens, 2 hours compound incubation. Summed up: as §1
[3] abbreviates: HTRF phospho-AKT(S473), SKBR3 (PI3Kα-Wild Type) cells.
Setting [4] is: HTRF phospho-AKT(S473), T47D (PI3Kα-H1047R) cells.
The mark [5] stands for this setting: SKBR3 (PI3Kα-Wild Type) cells, HTRF phospho-AKT(S473).
The mark [6] stands for this setting: T47D (PI3Kα-H1047R) cells, HTRF phospho-AKT(S473).

A value given as a limit tells only on which side of the number the result lay.

Turning to `Cc1cc([C@@H](C)Nc2ccc(Cl)nc2C(=O)NS(C)(=O)=O)c2nc(N3CCC(c4nn(C)nc4C)CC3)n(C)c(=O)c2c1` [Compound 506, (R)-6-chloro-3-((1-(2-(4-(2,5-dimethyl-2H-1,2,3-triazol-4-yl)piperidin-1-yl)-3,6-dimethyl-4-oxo-3,4-dihydroquinazolin-8-yl)ethyl)amino)-N-(methylsulfonyl) picolinamide], the half-inhibitory concentration (IC50) in assay [1] (setting [3]) is 1000 to 5000 nM; in assay [2] (setting [4]), < 250 nM.
Turning to `Cc1cc([C@@H](C)Nc2ccc(Cl)nc2C(=O)NS(C)(=O)=O)c2nc(N3CCc4nn(CC(F)(F)F)cc4C3)n(C)c(=O)c2c1` [Compound 220, (R)-6-chloro-3-((1-(3,6-dimethyl-4-oxo-2-(2-(2,2,2-trifluoroethyl)-2,4,6,7-tetrahydro-5H-pyrazolo[4,3-c]pyridin-5-yl)-3,4-dihydroquinazolin-8-yl)ethyl)amino)-N-(methylsulfonyl) picolinamide], the concentration for half-maximal inhibition (IC50) in assay [1] (setting [5]) is 1000 to 5000 nM; in assay [2] (setting [6]) it was < 250 nM.
The like results for `C[C@@H](Nc1ccc(Cl)nc1C(=O)NS(C)(=O)=O)c1cc(Cl)cc2c(=O)n(C)c(N3CCC(c4nn(C)cc4F)CC3)nc12` [Compound 431, (R)-6-chloro-3-((1-(6-chloro-2-(4-(4-fluoro-1-methyl-1H-pyrazol-3-yl)piperidin-1-yl)-3-methyl-4-oxo-3,4-dihydroquinazolin-8-yl)ethyl)amino)-N-(methylsulfonyl) picolinamide] were, in that order, 1000 to 5000 nM and 250 to 500 nM.
Consider `Cc1cc([C@@H](C)Nc2ccc(Cl)nc2C(=O)NS(C)(=O)=O)c2nc(N3CCC(c4ncccn4)CC3)n(C)c(=O)c2c1` [Compound 500, (R)-6-chloro-3-((1-(3,6-dimethyl-4-oxo-2-(4-(pyrimidin-2-yl)piperidin-1-yl)-3,4-dihydroquinazolin-8-yl)ethyl)amino)-N-(methylsulfonyl) picolinamide], for which the half-inhibitory concentration (IC50) in assay [1] (setting [3]) was 1000 to 5000 nM; in assay [2] (setting [4]), 250 to 500 nM.
The like results for `Cc1cc([C@@H](C)Nc2ccc(Cl)nc2C(=O)NS(C)(=O)=O)c2nc(N3C[C@@H]4C[C@H]3CN4c3cnc(C)c(F)c3)n(C)c(=O)c2c1` [Compound 608, 6-chloro-3-(((R)-1-(2-((1S,4S)-5-(5-fluoro-6-methylpyridin-3-yl)-2,5-diazabicyclo [2.2.1]heptan-2-yl)-3,6-dimethyl-4-oxo-3,4-dihydroquinazolin-8-yl)ethyl)amino)-N-(methylsulfonyl) picolinamide] were, in that order, ≥ 5000 nM and 500 to 1000 nM.
In the case of `Cc1cc([C@@H](C)Nc2ccc(Cl)nc2C(=O)NS(C)(=O)=O)c2nc(N3CCC(c4c(C)cnn4C)CC3)n(C)c(=O)c2c1` [Compound 427, (R)-6-chloro-3-((1-(2-(4-(1,4-dimethyl-1H-pyrazol-5-yl)piperidin-1-yl)-3,6-dimethyl-4-oxo-3,4-dihydroquinazolin-8-yl)ethyl)amino)-N-(methylsulfonyl) picolinamide], the IC50 in assay [1] (setting [5]) is 1000 to 5000 nM; in assay [2] (setting [6]), < 250 nM.
In the same order, the values of `Cc1cc([C@@H](C)Nc2ccc(Cl)nc2C(=O)NS(C)(=O)=O)c2nc(N3Cc4cn(-c5ccc(C)nc5)nc4C3)n(C)c(=O)c2c1` [Compound 217, (R)-6-chloro-3-((1-(3,6-dimethyl-2-(2-(6-methylpyridin-3-yl)-2,6-dihydropyrrolo[3,4-c]pyrazol-5(4H)-yl)-4-oxo-3,4-dihydroquinazolin-8-yl)ethyl)amino)-N-(methylsulfonyl) picolinamide] are 1000 to 5000 nM and < 250 nM.
For `Cc1cc([C@@H](C)Nc2ccc(Cl)nc2C(=O)NS(C)(=O)=O)c2nc(N3CCC(C4=NN(C)C(=O)C4(F)F)CC3)n(C)c(=O)c2c1` [Compound 561, (R)-6-chloro-3-((1-(2-(4-(4,4-difluoro-1-methyl-5-oxo-4,5-dihydro-1H-pyrazol-3-yl)piperidin-1-yl)-3,6-dimethyl-4-oxo-3,4-dihydroquinazolin-8-yl)ethyl)amino)-N-(methylsulfonyl) picolinamide], the IC50 in assay [1] (setting [3]) was ≥ 5000 nM; in assay [2] (setting [4]), 250 to 500 nM.
For the molecule `C[C@@H](Nc1ccc(Cl)nc1C(=O)NS(C)(=O)=O)c1cc(C2CC2)cc2c(=O)n(C)c(N3C[C@@H]4[C@H](C3)[C@H]4c3cnn(C)c3)nc12` [Compound 386, 6-chloro-3-(((R)-1-(6-cyclopropyl-3-methyl-2-((1R,5S,6S)-6-(1-methyl-1H-pyrazol-4-yl)-3-azabicyclo[3.1.0]hexan-3-yl)-4-oxo-3,4-dihydroquinazolin-8-yl)ethyl)amino)-N-(methylsulfonyl) picolinamide], the half-inhibitory concentration (IC50) was 1000 to 5000 nM in assay [1] (setting [5]) and < 250 nM in assay [2] (setting [6]).
Take `Cc1cc([C@@H](C)Nc2ccc(Cl)nc2C(=O)NS(C)(=O)=O)c2nc(N3C[C@@H]4C[C@H]3CN4c3nccnc3C)n(C)c(=O)c2c1` [Compound 726, 6-chloro-3-(((R)-1-(3,6-dimethyl-2-((1S,4S)-5-(3-methylpyrazin-2-yl)-2,5-diazabicyclo[2.2.1]heptan-2-yl)-4-oxo-3,4-dihydroquinazolin-8-yl)ethyl)amino)-N-(methylsulfonyl) picolinamide]: the values for the IC50 in assay [1] (setting [3]) and in assay [2] (setting [4]) were 1000 to 5000 nM and 250 to 500 nM, respectively.
In the same order, the values of `Cc1cc([C@@H](C)Nc2ccc(Cl)nc2C(=O)NS(C)(=O)=O)c2nc(N3C[C@@H]4[C@H](C3)[C@H]4c3cc4ncccn4n3)n(C)c(=O)c2c1` [Compound 508, 6-chloro-3-(((R)-1-(3,6-dimethyl-4-oxo-2-((1R,5S,6R)-6-(pyrazolo[1,5-a]pyrimidin-2-yl)-3-azabicyclo[3.1.0]hexan-3-yl)-3,4-dihydroquinazolin-8-yl)ethyl)amino)-N-(methylsulfonyl) picolinamide] are 1000 to 5000 nM and < 250 nM.
With `Cc1cc([C@@H](C)Nc2ccc(Cl)nc2C(=O)NS(C)(=O)=O)c2nc(N3CCc4oncc4C3)n(C)c(=O)c2c1` [Compound 276, (R)-6-chloro-3-((1-(2-(6,7-dihydroisoxazolo[4,5-c]pyridin-5(4H)-yl)-3,6-dimethyl-4-oxo-3,4-dihydroquinazolin-8-yl)ethyl)amino)-N-(methylsulfonyl) picolinamide], the IC50 in assay [1] (setting [5]) was 1000 to 5000 nM; in assay [2] (setting [6]) it was < 250 nM.
As to `Cc1cc([C@@H](C)Nc2ccc(Cl)nc2C(=O)NS(C)(=O)=O)c2nc(-c3ccc4nn(C)cc4n3)n(C)c(=O)c2c1` [Compound 841, (R)-6-chloro-3-((1-(3,6-dimethyl-2-(2-methyl-2H-pyrazolo [4,3-b]pyridin-5-yl)-4-oxo-3,4-dihydroquinazolin-8-yl)ethyl)amino)-N-(methylsulfonyl) picolinamide], the concentration for half-maximal inhibition (IC50) in assay [1] (SKBR3 (PI3Kα-Wild Type) cell line, phospho-AKT(S473) HTRF) was 1000 to 5000 nM; in assay [2] (T47D (PI3Kα-H1047R) cell line, phospho-AKT(S473) HTRF), 250 to 500 nM.
In the case of `Cc1cc([C@@H](C)Nc2ccc(Cl)nc2C(=O)NS(C)(=O)=O)c2nc(N3CCC(c4ncc(C(F)(F)F)cn4)CC3)n(C)c(=O)c2c1` [Compound 630, (R)-6-chloro-3-((1-(3,6-dimethyl-4-oxo-2-(4-(5-(trifluoromethyl)pyrimidin-2-yl)piperidin-1-yl)-3,4-dihydroquinazolin-8-yl)ethyl)amino)-N-(methylsulfonyl) picolinamide], the IC50 in assay [1] (setting [3]) was ≥ 5000 nM; in assay [2] (setting [4]), 500 to 1000 nM.
The like results for `COc1cc(O[C@H]2CCN(c3nc4c([C@@H](C)Nc5ccc(Cl)nc5C(=O)NS(C)(=O)=O)cc(C)cc4c(=O)n3C)C2)c(F)cn1` [Compound 611, 6-chloro-3-(((R)-1-(2-((S)-3-((5-fluoro-2-methoxypyridin-4-yl)oxy)pyrrolidin-1-yl)-3,6-dimethyl-4-oxo-3,4-dihydroquinazolin-8-yl)ethyl)amino)-N-(methylsulfonyl) picolinamide] were, in that order, ≥ 5000 nM and 250 to 500 nM.
`Cc1cc([C@@H](C)Nc2ccc(Cl)nc2C(=O)NS(C)(=O)=O)c2nc(N3CCc4nn(C)cc4C3)n(C)c(=O)c2c1` [Compound 286, (R)-6-chloro-3-((1-(3,6-dimethyl-2-(2-methyl-2,4,6,7-tetrahydro-5H-pyrazolo[4,3-c]pyridin-5-yl)-4-oxo-3,4-dihydroquinazolin-8-yl)ethyl)amino)-N-(methylsulfonyl) picolinamide]: the results for the concentration for half-maximal inhibition (IC50) in assay [1] (setting [5]) and in assay [2] (setting [6]) were 1000 to 5000 nM and < 250 nM, respectively.
On to `Cc1ccn([C@H]2[C@@H]3CN(c4nc5c([C@@H](C)Nc6ccc(Cl)nc6C(=O)NS(C)(=O)=O)cc(C)cc5c(=O)n4C)C[C@@H]32)c(=O)c1` [Compound 754, 6-chloro-3-(((R)-1-(3,6-dimethyl-2-((1R,5S,6S)-6-(4-methyl-2-oxopyridin-1(2H)-yl)-3-azabicyclo[3.1.0]hexan-3-yl)-4-oxo-3,4-dihydroquinazolin-8-yl)ethyl)amino)-N-(methylsulfonyl) picolinamide], for which the concentration for half-maximal inhibition (IC50) in assay [1] (setting [3]) is ≥ 5000 nM; in assay [2] (setting [4]) it was < 250 nM.
In the same order, the values of `Cc1cc([C@@H](C)Nc2ccc(Cl)nc2C(=O)NS(C)(=O)=O)c2nc(N3C[C@H]4C[C@@H]3C[C@H]4c3nn(C)cc3F)n(C)c(=O)c2c1` [Compound 766, 6-chloro-3-(((R)-1-(2-((1R,4S,5R)-5-(4-fluoro-1-methyl-1H-pyrazol-3-yl)-2-azabicyclo[2.2.1]heptan-2-yl)-3,6-dimethyl-4-oxo-3,4-dihydroquinazolin-8-yl)ethyl)amino)-N-(methylsulfonyl) picolinamide] are ≥ 5000 nM and 250 to 500 nM.
